Among the data in patent US10988478B1, “Pyrazolo[1,5a]pyrimidine derivatives as IRAK4 modulators” (Genentech, Inc., priority 2015, dated 2021) are Ki values, retold here.

human IRAK4, sequence (Q9NWZ3 whole entry, the tested form may be a part): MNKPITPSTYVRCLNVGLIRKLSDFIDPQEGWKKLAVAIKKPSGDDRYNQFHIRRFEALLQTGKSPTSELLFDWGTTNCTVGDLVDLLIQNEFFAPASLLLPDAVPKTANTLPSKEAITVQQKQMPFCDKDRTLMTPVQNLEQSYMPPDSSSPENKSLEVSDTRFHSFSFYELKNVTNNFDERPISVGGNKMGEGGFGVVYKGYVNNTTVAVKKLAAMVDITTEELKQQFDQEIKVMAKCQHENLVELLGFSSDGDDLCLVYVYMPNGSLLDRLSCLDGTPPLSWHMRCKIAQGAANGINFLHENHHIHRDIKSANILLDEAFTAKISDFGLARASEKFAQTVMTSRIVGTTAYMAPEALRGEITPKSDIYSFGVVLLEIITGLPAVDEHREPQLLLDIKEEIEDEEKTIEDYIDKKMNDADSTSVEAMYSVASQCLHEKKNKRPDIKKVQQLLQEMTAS

The target in the test is human IRAK4 (Homo sapiens (Human), UniProt Q9NWZ3). The test is described as follows: IRAK4 kinase inhibition, Transcreener fluorescence polarization ADP assay. Format: biochemical. The conditions noted are these: recombinant full-length His6-IRAK4; 125 uM ATP; 90 min; Ki computed using ATP Km 642 uM. The method, then:
Compounds were assayed for inhibition of human IRAK4 and IRAK1 catalytic activity using recombinant enzyme produced from insect cells. Full-length IRAK4 protein, carrying an N-terminal His6-Tag, was obtained from Life Technologies (Carlsbad, Calif., USA). The IRAK1 construct was produced internally and was comprised of IRAK1 residues Arg194 to Ser712, preceded by an NH2-terminal His6 tag and the coding sequence for glutathione-S-transferase.
For orientation: Polarisation of emitted light reports the rotation of a fluorescent probe.
For `CN1CCCC(Oc2cc3c(cc2NC(=O)c2cnn4cccnc24)CC(C)(C)O3)C1` (stereo not drawn) [Example 304, N-(2,2-Dimethyl-6-((1-methylpiperidin-3-yl)oxy)-2,3-dihydrobenzofuran-5-yl)pyrazolo[1,5-α]pyrimidine-3-carboxamide], the Ki is 720 nM.

With `CC1(C)Cc2cc(NC(=O)c3cnn4cccnc34)c(OC[C@@H]3CCNC(=O)C3)cc2O1` [Example 305], the Ki amounted to 29 nM. With `CC1(C)Cc2cc(NC(=O)c3cnn4cccnc34)c(OC[C@H]3CCNC(=O)C3)cc2O1` [Example 306, (S)-N-(2,2-Dimethyl-6-((2-oxopiperidin-4-yl)methoxy)-2,3-dihydrobenzofuran-5-yl)pyrazolo[1,5-α]pyrimidine-3-carboxamide] the figure was 52 nM.

Regarding `CC1(C)Cc2cc(NC(=O)c3cnn4cccnc34)c(OC[C@H]3CNC(=O)C3)cc2O1` [Example 307, N-[2,2-Dimethyl-6-[[(3R)-5-oxopyrrolidin-3-yl]methoxy]-3H-benzofuran-5-yl]pyrazolo[1,5-a]pyrimidine-3-carboxamide], the Ki stood at 32 nM.

For `CC1(C)Cc2cc(NC(=O)c3cnn4cccnc34)c(OC[C@@H]3CNC(=O)C3)cc2O1` [Example 308, N-[2,2-Dimethyl-6-[[(3S)-5-oxopyrrolidin-3-yl]methoxy]-3H-benzofuran-5-yl]pyrazolo[1,5-a]pyrimidine-3-carboxamide], the Ki stood at 9 nM. Regarding `CC1(C)Cc2cc(NC(=O)c3cnn4cccnc34)c(OCC3CCNCC3)cc2O1` [Example 309, N-(2,2-Dimethyl-6-(piperidin-4-ylmethoxy)-2,3-dihydrobenzofuran-5-yl)pyrazolo[1,5-α]pyrimidine-3-carboxamide], the Ki came out at 15 nM.

`C[C@@]1(CO)Cc2cc(NC(=O)c3cnn4cccnc34)c(OCC(F)F)cc2O1` [Example 310, (S)-N-(6-(2,2-difluoroethoxy)-2-(hydroxymethyl)-2-methyl-2,3-dihydrobenzofuran-5-yl)pyrazolo[1,5-a]pyrimidine-3-carboxamide]: the Ki turned out to be 23 nM. With `C[C@]1(CO)Cc2cc(NC(=O)c3cnn4cccnc34)c(OCC(F)F)cc2O1` [Example 311, (R)-N-(6-(2,2-difluoroethoxy)-2-(hydroxymethyl)-2-methyl-2,3-dihydrobenzofuran-5-yl)pyrazolo[1,5-a]pyrimidine-3-carboxamide] the figure was 10 nM; with `CC(C)(O)[C@]1(C)Cc2cc(NC(=O)c3cnn4cccnc34)c(O[C@H]3CC[C@@H](O)CC3)cc2O1` [Example 312, N-[(2S)-6-(cis-4-Hydroxycyclo-hexoxy)-2-(1-hydroxy-1-methyl-ethyl)-2-methyl-3H-benzofuran-5-yl]pyrazolo[1,5-a]pyrimidine-3-carboxamide], 73 nM.

`CC(C)(O)[C@@]1(C)Cc2cc(NC(=O)c3cnn4cccnc34)c(O[C@H]3CC[C@@H](O)CC3)cc2O1` [Example 313, N-[(2R)-6-(cis-4-Hydroxycyclo-hexoxy)-2-(1-hydroxy-1-methyl-ethyl)-2-methyl-3H-benzofuran-5-yl]pyrazolo[1,5-a]pyrimidine-3-carboxamide]: the Ki was 490 nM. Take `CC(C)(O)[C@]1(C)Cc2cc(NC(=O)c3cnn4cccnc34)c(O[C@H]3CC[C@H](O)CC3)cc2O1` [Example 314, N-[(2S)-6-(trans-4-Hydroxycyclo-hexoxy)-2-(1-hydroxy-1-methyl-ethyl)-2-methyl-3H-benzofuran-5-yl]pyrazolo[1,5-a]pyrimidine-3-carboxamide]: the Ki came to 65 nM. With `CC(C)(O)[C@@]1(C)Cc2cc(NC(=O)c3cnn4cccnc34)c(O[C@H]3CC[C@H](O)CC3)cc2O1` [Example 315, N-[(2R)-6-(trans-4-Hydroxycyclo-hexoxy)-2-(1-hydroxy-1-methyl-ethyl)-2-methyl-3H-benzofuran-5-yl]pyrazolo[1,5-a]pyrimidine-3-carboxamide] the figure was 520 nM.

The term Ki denotes a dissociation constant, usually derived from enzyme kinetics or from competition with a known ligand.
